Results as given in patent publication US11655246B2, “Aminothiazole compounds as inhibitors of CTPS1” (STEP PHARMA S.A.S., priority 2017, dated 2023).
Structures can show the parent of a compound that is named as a salt. Where two headings read alike, the source gives them in different places.

Molecular target: T1, human CTPS1 (Homo sapiens, UniProt P17812)
T1 construct: purchased Proteros biostructures GmbH
T1 sequence (P17812 1-591): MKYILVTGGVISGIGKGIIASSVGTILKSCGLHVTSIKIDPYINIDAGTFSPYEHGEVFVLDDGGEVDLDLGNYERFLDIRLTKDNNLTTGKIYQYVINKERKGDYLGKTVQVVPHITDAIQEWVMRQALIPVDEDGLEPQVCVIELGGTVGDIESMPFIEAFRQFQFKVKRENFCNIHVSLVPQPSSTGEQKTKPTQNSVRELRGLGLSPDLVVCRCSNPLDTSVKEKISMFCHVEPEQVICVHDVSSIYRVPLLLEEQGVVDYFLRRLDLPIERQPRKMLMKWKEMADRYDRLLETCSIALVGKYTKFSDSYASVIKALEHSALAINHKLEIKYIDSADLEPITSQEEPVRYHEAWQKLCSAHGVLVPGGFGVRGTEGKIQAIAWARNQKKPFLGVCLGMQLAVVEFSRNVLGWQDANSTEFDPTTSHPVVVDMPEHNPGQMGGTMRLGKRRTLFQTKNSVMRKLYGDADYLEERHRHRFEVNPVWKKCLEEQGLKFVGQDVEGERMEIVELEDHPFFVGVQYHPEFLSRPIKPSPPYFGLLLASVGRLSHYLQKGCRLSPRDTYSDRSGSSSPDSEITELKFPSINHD
Test: Human CTPS1 enzyme inhibition (ADP-Glo Max assay)
Type: biochemical
Settings: read-out: CTPS1 (Human CTPS1 Enzyme Inhibition data grouped by potency range)
Method: The enzyme inhibitory activities of compounds invented against the target of interest were determined using the ADP-Glo™ Max assay (Promega, UK). Assays for human CTPS1 were performed in 1× assay buffer containing 50 mM Tris, 10 mM MgCl2, 0.01% Tween-20, pH to 8.0 accordingly. Finally, immediately before use, L-cysteine was added to the 1× assay buffer to a final concentration of 2 mM. All reagents are from Sigma-Aldrich unless specified otherwise.
3× human CTPS1 protein was prepared in 1× assay buffer to the final working protein concentration required for the reaction. A 2 uL volume per well of 3× human CTPS1 protein was mixed with 2 uL per well of 3× test compound (compound prepared in 1× assay buffer to an appropriate final 3× compound concentration respective to the concentration response curve designed for the compounds under test) for 10 minutes at 25° C. […] ADP-Glo™ Max reagent was added for 60 minutes (6 uL per well) and subsequently ADP-Glo™ Max development reagent was added for 60 minutes (12 uL per well) prior to signal detection in a microplate reader (EnVision® Multilabel Reader, Perkin Elmer). Following each reagent addition over the course of the assay, assay plates were pulse centrifuged for 30 seconds at 500 rpm.
In all cases, the enzyme converts ATP to ADP and the ADP-Glo™ Max reagent subsequently depletes any remaining endogenous ATP in the reaction system. The ADP-Glo™ Max detection reagent converts the ADP that has been enzymatically produced back into ATP and using ATP as a substrate together with luciferin for the enzyme luciferase, light is generated which produces a detectable luminescence. […] The percentage inhibition produced by each concentration of compound was calculated using the equation shown below: […]

[1] = Table 18, additional potency data, 25° C.

CCOc1cncc(-c2ccc(NC(=O)C(N)c3csc(NS(=O)(=O)C4CC4)n3)c(F)c2)n1 (centres unmarked) [T419, 2-Amino-2-(2-(cyclopropanesulfonamido)thiazol-4-yl)-N-(4-(6-ethoxypyrazin-2-yl)-2-fluorophenyl)acetamide hydrochloride]
IC50 [1]: < 100 nM

CC(C)(C(=O)Nc1ccc(-c2cnccn2)c(F)c1)c1csc(NS(=O)(=O)C2CC2)n1 [T39]
IC50 (Table 17, 25° C.): 100 to 1000 nM

Cc1ncccc1-c1ccc(NC(=O)Cc2csc(NS(=O)(=O)C3CC3)n2)cc1 [T100]
IC50 (Table 17, 25° C.): 100 to 1000 nM

CCC(C(=O)Nc1ccc(-c2cncc(Cl)c2)cc1F)c1csc(NS(=O)(=O)C2CC2)n1 (centres unmarked) [T203]
IC50 (Table 17, 25° C.): < 100 nM

CCOc1cncc(-c2ccc(NC(=O)C(c3csc(NS(=O)(=O)C4CC4)n3)N(C)C)c(F)c2)n1 (centres unmarked) [T421, 2-(2-(Cyclopropanesulfonamido)thiazol-4-yl)-2-(dimethylamino)-N-(4-(6-ethoxypyrazin-2-yl)-2-fluorophenyl)acetamide]
IC50 [1]: < 100 nM

CCC(C(=O)Nc1ccc(-c2cncc(OCC(F)(F)F)n2)cc1)c1csc(NS(=O)(=O)C2CC2)n1 (centres unmarked) [T195]
IC50 (Table 17, 25° C.): < 100 nM

Cc1cc(-c2cncc(Cl)c2)c(F)cc1NC(=O)C(C)(C)c1csc(NS(=O)(=O)C2CC2)n1 [T364, N-(4-(5-chloropyridin-3-yl)-5-fluoro-2-methylphenyl)-2-(2-(cyclopropanesulfonamido)thiazol-4-yl)-2-methylpropanamide]
IC50 [1]: 100 to 1000 nM

CCOc1cncc(-c2ccc(NC(=O)C(OC)c3csc(NS(=O)(=O)C4CC4)n3)cc2)n1 (racemic) [T410, 2-(2-(cyclopropanesulfonamido)thiazol-4-yl)-N-(4-(6-ethoxypyrazin-2-yl)phenyl)-2-methoxyacetamide]
IC50 [1]: < 100 nM

CC(C)(C(=O)Nc1ccc(-c2cncc(C(F)(F)F)n2)cc1)c1csc(NS(=O)(=O)C2CCCC2)n1 [T334, 2-(2-(cyclopentanesulfonamido)thiazol-4-yl)-2-methyl-N-(4-(6-(trifluoromethyl)pyrazin-2-yl)phenyl)propanamide]
IC50 [1]: 100 to 1000 nM

O=C(Cc1nc(NS(=O)(=O)C2CC2)sc1Cl)Nc1ccc(-c2ccccc2)cc1 [T21, N-([1,1′-biphenyl]-4-yl)-2-(5-chloro-2-(cyclopropanesulfonamido)thiazol-4-yl)acetamide]
IC50 (Table 17, 25° C.): 1000 to 10000 nM

CCOc1cncc(-c2ccc(NC(=O)C(OC)c3csc(NS(=O)(=O)C4CC4)n3)c(Cl)c2)n1 (centres unmarked) [T450]
IC50 [1]: < 100 nM

CCC(C(=O)Nc1ccc(-c2cncc(C#N)n2)cc1)c1csc(NS(=O)(=O)C2CC2)n1 (centres unmarked) [T79]
IC50 (Table 17, 25° C.): 100 to 1000 nM

COC(C(=O)Nc1ccc(-c2cncc(F)c2)cc1C(F)(F)F)c1csc(NS(=O)(=O)C2CC2)n1 (centres unmarked) [T447]
IC50 [1]: < 100 nM

CCOc1cncc(-c2ccc(NC(=O)C(CC)c3csc(NS(=O)(=O)C4CC4)n3)cc2)n1 (single isomer, unassigned) [T204]
IC50 (Table 17, 25° C.): < 100 nM

COc1cncc(-c2ccc(NC(=O)C(OC)c3csc(NS(=O)(=O)C4CC4)n3)cc2)n1 (centres unmarked) [T57]
IC50 (Table 17, 25° C.): < 100 nM

Cc1sc(NS(=O)(=O)C2CC2)nc1C(C)(C)C(=O)Nc1ccc(-c2cncc(C(F)(F)F)n2)cn1 [T340, 2-(2-(cyclopropanesulfonamido)-5-methylthiazol-4-yl)-2-methyl-N-(5-(6-(trifluoromethyl)pyrazin-2-yl)pyridin-2-yl)propanamide]
IC50 [1]: 100 to 1000 nM

CC(C)c1cc(-c2cncc(Cl)c2)ccc1NC(=O)C(C)(C)c1csc(NS(=O)(=O)C2CC2)n1 [T359, N-(4-(5-chloropyridin-3-yl)-2-isopropylphenyl)-2-(2-(cyclopropanesulfonamido)thiazol-4-yl)-2-methylpropanamide]
IC50 [1]: < 100 nM

CCOc1cncc(-c2ccc(NC(=O)C(C)(C)c3nc(NS(=O)(=O)C4CC4)sc3C)c(F)c2)n1 [T358, 2-(2-(cyclopropanesulfonamido)-5-methylthiazol-4-yl)-N-(4-(6-ethoxypyrazin-2-yl)-2-fluorophenyl)-2-methylpropanamide]
IC50 [1]: < 100 nM

CC(C)Oc1cncc(-c2ccc(NC(=O)C(C)(C)c3csc(NS(C)(=O)=O)n3)c(F)c2)n1 [T392, N-(2-fluoro-4-(6-isopropoxypyrazin-2-yl)phenyl)-2-methyl-2-(2-(methylsulfonamido)thiazol-4-yl)propanamide]
IC50 [1]: < 100 nM

CCS(=O)(=O)Nc1nc(C(C)(C)C(=O)Nc2ccc(-c3cncc(OC(C)C)n3)cc2F)cs1 [T383, 2-(2-(ethylsulfonamido)thiazol-4-yl)-N-(2-fluoro-4-(6-isopropoxypyrazin-2-yl)phenyl)-2-methylpropanamide]
IC50 [1]: < 100 nM

CCOc1cncc(-c2ccc(NC(=O)C(OC)c3csc(NS(C)(=O)=O)n3)cc2)n1 (centres unmarked) [T455]
IC50 [1]: < 100 nM

O=C(Nc1ccc(-c2cccnc2)cc1)C(F)(F)c1csc(NS(=O)(=O)C2CC2)n1 [T89]
IC50 (Table 17, 25° C.): < 100 nM

CCc1cc(-c2cncc(Cl)c2)cc(CC)c1NC(=O)C(C)(C)c1csc(NS(=O)(=O)C2CC2)n1 [T348, N-(4-(5-chloropyridin-3-yl)-2,6-diethylphenyl)-2-(2-(cyclopropanesulfonamido)thiazol-4-yl)-2-methylpropanamide]
IC50 [1]: 100 to 1000 nM

CCOc1cncc(-c2cnc(NC(=O)C(CC)c3csc(NS(=O)(=O)C4CC4)n3)c(F)c2)n1 (centres unmarked) [T183]
IC50 (Table 17, 25° C.): < 100 nM

CC(C(=O)Nc1ccc(-c2cccnc2)nc1)c1csc(NS(=O)(=O)C2CC2)n1 (centres unmarked) [T27]
IC50 (Table 17, 25° C.): 100 to 1000 nM

CCOc1cc(NC(=O)C(C)(C)c2csc(NS(=O)(=O)C3CC3)n2)ccc1-c1cncc(Cl)c1 [T372, N-(4-(5-chloropyridin-3-yl)-3-ethoxyphenyl)-2-(2-(cyclopropanesulfonamido)thiazol-4-yl)-2-methylpropanamide]
IC50 [1]: 100 to 1000 nM

COC(C(=O)Nc1ccc(-c2cccnc2)cc1)c1csc(NS(=O)(=O)C2CC2)n1 (centres unmarked) [T219]
IC50 (Table 17, 25° C.): < 100 nM

CCOc1cncc(-c2ccc(NC(=O)C(CC)c3csc(NS(=O)(=O)C4CC4)n3)c(C#N)c2)n1 (centres unmarked) [T440]
IC50 [1]: < 100 nM

CCC(C(=O)Nc1ccc(-c2cncc(OC)n2)cc1)c1csc(NS(=O)(=O)C2CC2)n1 (centres unmarked) [T33]
IC50 (Table 17, 25° C.): < 100 nM

CCC(C(=O)Nc1ccc(-c2cncc(F)c2)cc1)c1csc(NS(=O)(=O)C2CC2)n1 (centres unmarked) [T90]
IC50 (Table 17, 25° C.): < 100 nM

CCC(C(=O)Nc1ccc(-c2ccccc2)cc1)c1csc(NS(=O)(=O)C2CC2)n1 (centres unmarked) [T85]
IC50 (Table 17, 25° C.): 100 to 1000 nM

CCOc1cncc(-c2ccc(NC(=O)C(CC)c3csc(NS(=O)(=O)C4CC4)n3)c(F)c2)n1 (single isomer, unassigned) [T413, 2-(2-(cyclopropanesulfonamido)thiazol-4-yl)-N-(4-(6-ethoxypyrazin-2-yl)-2-fluorophenyl)butanamide]
IC50 [1]: < 100 nM

CCOc1cncc(-c2ccc(NC(=O)C(CC)c3csc(NS(=O)(=O)C4CC4)n3)c(Cl)c2)n1 (centres unmarked) [T439]
IC50 [1]: < 100 nM

CC(C)C(C(=O)Nc1ccc(-c2cccnc2)cc1)c1csc(NS(=O)(=O)C2CC2)n1 (single isomer, unassigned) [T13, 2-(2-(cyclopropanesulfonamido)thiazol-4-yl)-3-methyl-N-(4-(pyridin-3-yl)phenyl)butanamide.HCl]
IC50 (Table 17, 25° C.): 100 to 1000 nM

COC(C)(C)c1cncc(-c2ccc(NC(=O)C(C)(C)c3csc(NS(=O)(=O)C4CC4)n3)nc2)n1 [T339, 2-(2-(cyclopropanesulfonamido)thiazol-4-yl)-N-(5-(6-(2-methoxypropan-2-yl)pyrazin-2-yl)pyridin-2-yl)-2-methylpropanamide]
IC50 [1]: 1000 to 10000 nM
